Data taken from patent US9617261B2, “Substituted pyridinone compounds as MEK inhibitors” (The Asan Foundation, priority 2013, dated 2017).
Values belong to the molecule of their own block, whether it stands above or below them.

Experiments:
[1] = test system: COLO205 cell line (Colon cancer); experiment: Cell viability assay (CellTiter-Glo), COLO205; conditions: Homo sapiens, COLO 205; COLO205, 72 hours; read-out: IC50 Cell-based assay (COLO205)
Experimental: (§1) The CellTiter-Glo® assay was purchased from Promega. All the reagents and plates for cell culture were purchased Invitrogen Life Technology and Nunc, respectively.
(§2) To investigate whether a compound is able to inhibit the activity of MEK in cells, a mechanism-based assay using COLO205 cell line (Colon cancer) and M14 cell line (Melanoma) were developed. COLO205 cells and M14 cells were cultured in a tissue culture flask to 80% confluence in RPMI1640 plus 10% fetal bovine serum. Cells were collected and plated onto 96 well culture plates at 2×10^2 cells/well. Plates were incubated overnight at 37° C. in a 5% CO2 incubator to allow cells to adhere. Various concentrations of MEK inhibitors were added to the plates and incubated at 37° C. for 72 hours. After 72 hours, 20 μl of CellTiter-Glo® reagent was added to each well. Mix by orbital shaking for 2 min, then incubates at room temperature for 15 min. Cell lysate were transferred into a 96 well white plate (Thermo). Plates were read out by EnVision Multilabel Plate Reader. The data were analyzed using GraphPad Prism5.

Mek1 = Mek1 (Homo sapiens (Human), UniProt Q02750); experiment: Mek1 kinase assay (LANCE); assay type: biochemical; conditions: Mek1 0.5 nM, 50 μM ATP, 90 min at 23° C.; read-out: IC50 Enzymatic assay
Text: The LANCE Ultra assay kit was purchased from PerkinElmer. The ULight™-MBP peptide, Europium labeled Antibody and LANCE Detection buffer were purchased from PerkinElmer. The APT and dimethylsulfoxide were purchased from Sigma-Aldrich. The 5× Kinase buffer were purchased from Invitrogen.
A Mek1 kinase assay (LANCE, PerkinElmer) was developed for supporting compound profiling and lead optimization. […] Then the phosphorylated Erk1 was able to phosphorylate ULight™-MBP peptide (PerkinElmer). The phosphorylated peptide was detected by Europium-anti-phospho-MBP (PerkinElmer). […] After quenching the reaction with […], 2 nM Europium-anti-phospho-MBP was added to the reaction mixture and incubated for 60 min, followed by a detection using EnVision Multilabel Plate Reader (PerkinElmer). The IC50 values were derived through a curve fitting using GraphPad Prism5.

M14 cell line (Melanoma) = experiment: Cell viability assay (CellTiter-Glo), M14; conditions: Homo sapiens; M14, 72 hours; read-out: IC50 Cell-based assay (M14)
Experimental: as §1, §2

[2] = Example 3 toxicity study by oral administration for 8 days; assay type: in vivo, Sprague-Dawley rats; conditions: for Body weight: escalating 5-320 mg/kg over 8 days
Experimental: To evaluate the potential toxicity, test article, Example 3, was administered orally for 8 days to Sprague-Dawley rats.
Male and female Sprague-Dawley rats, 6 weeks of age at onset of the study, were assigned to 2 experimental groups as follow: (1) 2 male rats treated 5, 5, 10, 20, 40, 80, 160, 320 mg/kg each day with doses escalating for 8 days (2) 2 female rats treated 5, 5, 10, 20, 40, 80, 160, 320 mg/kg each day with doses escalating for 8 days. Each article was in vehicle (Captisol).
Body weight was measured on a daily basis to determine toxicity. All groups were sacrificed at 9th day.

Chain of Mek1 (Q02750 whole entry, species assumed): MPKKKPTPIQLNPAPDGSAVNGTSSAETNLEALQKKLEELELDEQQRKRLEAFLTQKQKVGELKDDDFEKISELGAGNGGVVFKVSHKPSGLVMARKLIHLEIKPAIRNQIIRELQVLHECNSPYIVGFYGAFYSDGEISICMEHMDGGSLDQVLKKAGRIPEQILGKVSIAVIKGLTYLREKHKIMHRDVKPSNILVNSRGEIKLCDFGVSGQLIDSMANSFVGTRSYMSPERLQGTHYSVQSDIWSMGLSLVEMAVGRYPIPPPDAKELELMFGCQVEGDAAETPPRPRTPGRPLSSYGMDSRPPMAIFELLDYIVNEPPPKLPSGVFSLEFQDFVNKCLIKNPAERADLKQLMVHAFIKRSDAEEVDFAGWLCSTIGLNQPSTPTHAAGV

SMILES: C[C@@H](O)CONC(=O)c1c2c(c(=O)n(C)c1Nc1ccc(I)cc1F)CCC2 [Example 6, (R)-3-(2-fluoro-4-iodophenylamino)-N-(2-hydroxypropoxy)-2-methyl-1-oxo-2,5,6,7-tetrahydro-1H-cyclopenta[c]pyridine-4-carboxamide]
IC50 [1]: < 10 nM
IC50 (Mek1): < 1000 nM
IC50 (M14 cell line (Melanoma)): < 100 nM

SMILES: Cn1c(Nc2ccc(I)cc2F)c(-c2nnc(N)o2)c2c(c1=O)CCC2 [Example 9, 4-(5-amino-1,3,4-oxadiazol-2-yl)-3-(2-fluoro-4-iodophenylamino)-2-methyl-2,5,6,7-tetrahydro-1H-cyclopenta[c]pyridin-1-one]
IC50 [1]: < 50 nM
IC50 (Mek1): < 5000 nM
IC50 (M14 cell line (Melanoma)): < 1000 nM

SMILES: Cn1c(Nc2ccc(I)cc2F)c(C(=O)NOCCO)c2c(c1=O)CCC2 [Example 3, 3-(2-fluoro-4-iodophenylamino)-N-(2-hydroxyethoxy)-2-methyl-1-oxo-2,5,6,7-tetrahydro-1H-cyclopenta[c]pyridine-4-carboxamide]
IC50 [1]: < 5 nM
Body weight ([2]; female rats): decreased after 6 days
Mortality ([2]; male and female rats, escalating 5, 5, 10, 20, 40, 80, 160, 320 mg/kg over 8 days): No mortality was observed
Body weight ([2]; male rats): decreased at day 6 and day 8
IC50 (Mek1): < 500 nM
IC50 (M14 cell line (Melanoma)): < 10 nM

SMILES: Cn1c(Nc2ccc(I)cc2F)c(C(N)=O)c2c(c1=O)CCC2 [Example 4, 3-(2-fluoro-4-iodophenylamino)-2-methyl-1-oxo-2,5,6,7-tetrahydro-1H-cyclopenta[c]pyridine-4-carboxamide]
IC50 [1]: < 50 nM
IC50 (Mek1): < 5000 nM
IC50 (M14 cell line (Melanoma)): < 500 nM

SMILES: Cn1c(Nc2ccc(I)cc2F)c(C(=O)NOCCO)c2c(c1=O)CC(C)(C)C2 [Example 10, 3-(2-fluoro-4-iodophenylamino)-N-(2-hydroxyethoxy)-2,6,6-trimethyl-1-oxo-2,5,6,7-tetrahydro-1H-cyclopenta[c]pyridine-4-carboxamide]
IC50 [1]: < 50 nM
IC50 (M14 cell line (Melanoma)): < 100 nM

SMILES: Cn1c(Nc2ccc(I)cc2F)c(C(=O)NOCCO)c2ncccc2c1=O [Example 1, 7-(2-fluoro-4-iodophenylamino)-N-(2-hydroxyethoxy)-6-methyl-5-oxo-5,6-dihydro-1,6-naphthyridine-8-carboxamide]
IC50 [1]: < 500 nM
IC50 (Mek1): < 1000 nM
IC50 (M14 cell line (Melanoma)): < 500 nM

SMILES: Cn1c(Nc2ccc(I)cc2F)c(-c2nnc(N)o2)c2ncccc2c1=O [Example 2, 8-(5-amino-1,3,4-oxadiazol-2-yl)-7-(2-fluoro-4-iodophenylamino)-6-methyl-1,6-naphthyridin-5(6H)-one]
IC50 [1]: < 50000 nM
IC50 (Mek1): < 10000 nM
IC50 (M14 cell line (Melanoma)): < 50000 nM

Second part, the molecule after the results:

IC50 [1]: < 5 nM
IC50 (Mek1): < 500 nM
IC50 (M14 cell line (Melanoma)): < 50 nM
SMILES: Cn1c(Nc2ccc(I)cc2Cl)c(C(=O)NOCCO)c2c(c1=O)CCC2 [Example 11, 3-(2-chloro-4-iodophenylamino)-N-(2-hydroxyethoxy)-2-methyl-1-oxo-2,5,6,7-tetra hydro-1H-cyclopenta[c]pyridine-4-carboxamide]

IC50 [1]: < 5 nM
IC50 (Mek1): < 5000 nM
IC50 (M14 cell line (Melanoma)): < 500 nM
SMILES: Cn1c(Nc2ccc(I)cc2F)c(C(=O)NOCC(C)(C)O)c2c(c1=O)CCC2 [Example 7, 3-(2-fluoro-4-iodophenylamino)-N-(2-hydroxy-2-methylpropoxy)-2-methyl-1-oxo-2,5,6,7-tetrahydro-1H-cyclopenta[c]pyridine-4-carboxamide]

IC50 [1]: < 5 nM
IC50 (Mek1): < 500 nM
IC50 (M14 cell line (Melanoma)): < 50 nM
SMILES: C[C@H](O)CONC(=O)c1c2c(c(=O)n(C)c1Nc1ccc(I)cc1F)CCC2 [Example 5, (S)-3-(2-fluoro-4-iodophenylamino)-N-(2-hydroxypropoxy)-2-methyl-1-oxo-2,5,6,7-tetrahydro-1H-cyclopenta[c]pyridine-4-carboxamide]

IC50 [1]: < 5 nM
IC50 (Mek1): < 500 nM
IC50 (M14 cell line (Melanoma)): < 50 nM
SMILES: Cn1c(Nc2ccc(I)cc2F)c(C(=O)NOCC(O)CO)c2c(c1=O)CCC2 (centres unmarked) [Example 8, N-(2,3-dihydroxypropoxy)-3-(2-fluoro-4-iodophenylamino)-2-methyl-1-oxo-2,5,6,7-tetrahydro-1H-cyclopenta[c]pyridine-4-carboxamide]
